The record followed here is patent publication US20220409577A1, “INTRATUMORAL ADMINISTRATION OF ASCORBIC ACID AND QUINONE COMPOUNDS FOR TUMOR TREATMENT” (IC-MedTech Corp., priority 2021, published 2022).

The test system of the data set is Glioblastoma cells (GS9L). Briefly: Antitumor activity in a glioblastoma xenograft mouse model (GS9L), intracranial treatment. The following applies: glioblastoma-bearing mice; single intracranial injection on Day 4; TMZ 4 mg/kg; L-ascorbic acid 1.4 or 7 mg/kg + menadione 14 or 70 μg/kg, then oral L-ascorbic acid 15 g/L and menadione 150 mg/L in water daily. It counts as in vivo, Balb/c nude mice.

Procedure: Six-week-old male Balb/c nude mice were maintained in specific pathogen-free conditions. Glioblastoma cells (GS9L) were cultured in DMEM supplemented with 10% FBS, penicillin (100 U/mL), and streptomycin (100 mg/L) at 37° C. in a humidified atmosphere containing 5% CO2. After deep anesthesia, the mice were positioned in a stereotactic frame. A small craniectomy was performed at 2-3 mm from the midline and 1 mm anterior to the coronal suture. The glioblastoma cells (5×10^5 cells in 5 μL) were stereotactically injected into the brain parenchyma at a depth of 3 mm on Day 1 using an automated injector.
Vitamin C (L-ascorbic acid) was dissolved in PBS at 10 mM (pH 7.4). Menadione and temozolomide (TMZ) were each dissolved in DMSO at 10 mM as a stock solution and diluted in PBS when in use. The final concentration of DMSO was below 1%. […] The glioblastoma-bearing mice were analyzed on Days 4, 7, 14, 21, and 28 (i.e., 0, 3, 10, 17, and 24 days after drug administration) by MRI to determine the size of the glioblastoma. […]

`Cn1nnc2c(C(N)=O)ncn2c1=O` [TMZ, temozolomide]: the “side-effects (e.g., fever, tetraplegia, or convulsions)” value is listed as “experienced side-effects (e.g., fever, tetraplegia, or convulsions)”.
